In patent US9126941B2, “Treatment of hyperproliferative disorders with diarylhydantoin compounds” (The Regents of the University of California, priority 2005, dated 2015):
Where two headings read alike, the source gives them in different places.

Columns and labels:
AR [1] = target: T1, AR (Homo sapiens, UniProt P10275); assay: cell-based; type: cell-based
Method: It is well established that PSA levels are indicators of AR activities in prostate cancer. […] The LNCaP-AR cells are a line of lymph node carcinoma of prostate cells transduced with a plasmid that makes express androgen receptors. […] After four days incubation, secreted PSA levels were assayed using PSA ELISA kits (American Qualex, San Clemente, Calif.)

4AR cell line = assay: Luciferase activity in the 4AR cell line; type: cell-based; details: for a given dose, 1.25 to 10 μmol
1AR cell line = assay: Luciferase activity in the 1AR cell line; type: cell-based; details: for a given dose
MCF7 = assay: Growth effect on MCF7 cells; type: cell-based; details: breast cancer cells
AR [2] = target: T1, AR; assay: cell-based; type: cell-based; remark: listed apart in the source
AR [3] = target: T1, AR; assay: cell-based
Description: Table 2 lists the agonistic activities of different compounds.

DU-145 cells = assay: MTS growth assay, DU-145 cells; type: cell-based; details: prostate cancer cell line lacking AR expression
AR [4] = target: T1, AR; assay: cell-based; type: cell-based; remark: listed apart in the source
Method: The compounds were subjected to tests using an artificial AR response reporter system in a hormone refractory prostate cancer cell line. […] After two days of incubation, reporter activities were assayed.

SkBr3 = assay: Growth effect on SkBr3 cells; type: cell-based; details: breast cancer cells
[5] = tested on: AR-overexpressed LNCaP xenograft tumors; assay: AR-overexpressed LNCaP xenograft model in castrated male SCID mice, oral once daily; type: in vivo; details: 44 days
Method: FIG. 7. […] Mice with established LN-AR xenograft tumors were randomized and treated with indicated compounds orally once daily. Tumor size was measured by caliber.
FIG. 8. […] The tumors were taken out from the mice after 44 days of treatment, tumor lysate was extracted, and PSA level in tissue lysate was determined by ELISA.
First we examined this compound on xenograft tumors established from AR-overexpressed LNCaP cells. The engineered cells in Matrigel (Collaborative Biomedical) were injected subcutaneously into the flanks of the castrated male SCID mice. Tumor size was measured weekly in three dimensions using calipers. After xenograft tumors established (tumor size reached at least 40 mm^3), mice with tumors were randomized and treated with different doses of compounds orally once daily.

LNCaP cells = assay: MTS growth assay, hormone sensitive LNCaP cells; type: cell-based; details: FIG. 10, MTS
Method: FIG. 10. Inhibitory effect on growth of hormone sensitive prostate cancer cells. […] After 4 days of incubation, cell growth was measured by MTS assay.

[6] = target: glucocorticoid receptor (GR) (Homo sapiens (Human), UniProt P04150); assay: GR response reporter in LNCaP cells over expressing glucocorticoid receptor; type: cell-based; details: reporter induced by dexamethasone
Chain of glucocorticoid receptor (GR) (P04150 whole entry, species assumed): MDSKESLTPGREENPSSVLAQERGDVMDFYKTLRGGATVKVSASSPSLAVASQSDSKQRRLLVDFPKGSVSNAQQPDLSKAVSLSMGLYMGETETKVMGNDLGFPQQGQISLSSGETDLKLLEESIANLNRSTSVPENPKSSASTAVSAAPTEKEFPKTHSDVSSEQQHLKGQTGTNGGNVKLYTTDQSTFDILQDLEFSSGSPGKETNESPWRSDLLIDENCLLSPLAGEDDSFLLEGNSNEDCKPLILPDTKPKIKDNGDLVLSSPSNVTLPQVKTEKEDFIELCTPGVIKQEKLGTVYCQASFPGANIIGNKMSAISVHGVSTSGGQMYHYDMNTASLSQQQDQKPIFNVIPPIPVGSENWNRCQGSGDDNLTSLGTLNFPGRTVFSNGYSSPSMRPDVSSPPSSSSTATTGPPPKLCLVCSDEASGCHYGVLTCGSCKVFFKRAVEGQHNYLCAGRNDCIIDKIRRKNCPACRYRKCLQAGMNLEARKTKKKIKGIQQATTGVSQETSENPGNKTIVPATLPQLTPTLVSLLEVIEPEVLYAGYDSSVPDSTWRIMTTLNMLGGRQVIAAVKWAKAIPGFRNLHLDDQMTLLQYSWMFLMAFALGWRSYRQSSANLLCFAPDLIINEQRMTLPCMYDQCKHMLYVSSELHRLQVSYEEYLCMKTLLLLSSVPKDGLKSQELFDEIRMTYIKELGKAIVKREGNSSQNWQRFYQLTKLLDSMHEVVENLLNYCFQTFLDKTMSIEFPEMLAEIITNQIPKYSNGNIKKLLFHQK

3T3 = assay: Growth effect on 3T3 fibroblasts; type: cell-based; details: normal mouse fibroblast cell line
[7] = Pharmacokinetics in FVB mice, drug concentration by HPLC; details: mice
Method: Mice were divided into groups of three for each time points. Two mice were not treated with drug and two other mice were treated with vehicle solution. […]
The drug was dissolved in a mixture 1:5:14 of DMSO:PEG400:H20. (Vehicle solution) and was administered into mice through the tail vein. The animals are warmed under a heat lamp for approximately 20 minutes prior to treatment to dilate their tail vein. […] After drug administration, the animals were euthanized via CO2 inhalation at different timepoints: […], […], 2 h, 6 h, 16 h. Animals were immediately bleed after exposure to CO2 via cardiac puncture (1 ml BD syringe+27 G ⅝ needle).
The samples for HPLC analysis were prepared according to the following procedure: • Blood cells were separated from serum by centrifugation. • To 400 μl of serum were added 80 μl of a 10 μM solution of an internal standard and 520 μl of acetonitrile. Precipitation occurred. • The mixture was vortexed for 3 minutes and then placed under ultrasound for 30 minutes. • The solid particles were filtered off or were separated by centrifugation. • The filtrate was dried under an argon flow to dryness.

[8] = tested on: hormone refractory LAPC4 xenograft; assay: Hormone refractory LAPC4 xenograft model; type: in vivo, mice; details: 1 mg per kg orally once daily, 17 days
Method: FIG. 9. […] (A), tumor size was measured by caliber. (B), the tumors were taken out from the mice after 17 days of treatment, tumor lysate was extracted, and PSA level in tissue lysate was determined by ELISA.
This model was established from passaging of hormone sensitive prostate cancer in castrated mice, which mimics the clinical progression of prostate cancer (2).

T1 sequence (P10275 whole entry, looked up): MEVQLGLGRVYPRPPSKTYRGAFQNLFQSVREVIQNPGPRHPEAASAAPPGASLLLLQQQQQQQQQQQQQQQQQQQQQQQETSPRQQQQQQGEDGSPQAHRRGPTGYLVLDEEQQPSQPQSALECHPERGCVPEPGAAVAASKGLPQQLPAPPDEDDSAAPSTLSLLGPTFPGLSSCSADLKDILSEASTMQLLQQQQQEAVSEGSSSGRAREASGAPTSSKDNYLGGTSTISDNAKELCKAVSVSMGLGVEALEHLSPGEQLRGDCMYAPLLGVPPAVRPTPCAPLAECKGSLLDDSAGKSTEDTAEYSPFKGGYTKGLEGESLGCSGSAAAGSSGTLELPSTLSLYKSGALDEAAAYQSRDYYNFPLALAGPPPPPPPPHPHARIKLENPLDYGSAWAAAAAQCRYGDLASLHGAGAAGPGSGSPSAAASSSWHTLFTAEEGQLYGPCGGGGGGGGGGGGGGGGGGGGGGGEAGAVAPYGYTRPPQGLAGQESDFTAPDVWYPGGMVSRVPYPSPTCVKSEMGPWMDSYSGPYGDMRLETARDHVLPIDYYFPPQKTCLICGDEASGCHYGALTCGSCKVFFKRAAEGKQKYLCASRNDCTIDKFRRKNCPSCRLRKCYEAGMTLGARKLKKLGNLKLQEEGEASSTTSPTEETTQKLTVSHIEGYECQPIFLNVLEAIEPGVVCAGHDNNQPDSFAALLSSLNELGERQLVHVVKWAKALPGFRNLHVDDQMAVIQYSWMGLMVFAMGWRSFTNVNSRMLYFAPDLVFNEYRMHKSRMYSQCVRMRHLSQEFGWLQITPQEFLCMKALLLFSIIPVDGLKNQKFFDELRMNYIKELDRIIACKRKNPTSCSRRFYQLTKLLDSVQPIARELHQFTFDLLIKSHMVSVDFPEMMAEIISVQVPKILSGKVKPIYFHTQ

SMILES: CC1(C)C(=O)N(c2ccc(C#N)c(C(F)(F)F)c2)C(=S)N1c1ccc(O)cc1 [RD8, 4-[3-(4-hydroxyphenyl)-4,4-dimethyl-5-oxo-2-thioxoimidazolidin-1-yl]-2-trifluoromethylbenzonitrile]
- PSA level, LN/AR cell line, comparison (AR [1]; for a given dose / concentration): less than the PSA level upon exposure to RD9
- Luciferase activity, 4AR cell line (FIG. 26) (4AR cell line): less than the luciferase activity upon exposure to RD9
- Luciferase activity, 1AR cell line (1AR cell line): less than the luciferase activity upon exposure to RD9

SMILES: Cc1ccc(N2C(=S)N(c3ccc(C#N)c(C(F)(F)F)c3)C(=O)C23CCC3)cc1 [RD37, 4-(8-oxo-6-thioxo-5-(4-methylphenyl)-5,7-diazaspiro[3.4]oct-7-yl)-2-trifluoromethylbenzonitrile]
- Growth effect on MCF7 (MCF7): no growth effect
- IC50 (AR [1]): 128 nM
- Rank order, most active to least active, relative PSA level (FIG. 4) (AR [1]; 500 nM): RD138>RD131>RD37>RD133>RD134>RD137>RD138>RD135>bicalutamide
- Decrease in PSA level of LNCaP-AR cells, comparison (FIG. 4) (AR [1]; at concentrations of 1000 nM): greater decrease in PSA level of LNCaP-AR cells than RD133, RD134, and RD138
- Agonistic activity, secreted PSA (AR [2]; AR over expressed LNCaP, absence of R1881): no agonistic activities
- fold induction at 0.1 µM (AR [2]; LNCaP, read-out: Fold induction of endogenous PSA, 0.1 μM): 1.25
- fold induction at 1 µM (AR [2]; LNCaP, read-out: Fold induction of endogenous PSA, 1 μM): 1.2
- fold induction at 10 µM (AR [2]; LNCaP, read-out: Fold induction of endogenous PSA, 10 μM): 1.15
- Agonistic activity on AR, reporter (AR [3]; LN-AR, absence of R1881): no agonistic activity
- fold induction at 0.1 µM (AR [3]; read-out: Fold induction of AR response reporter, 0.1 μM): 0.87
- fold induction at 1 µM (AR [3]; read-out: Fold induction of AR response reporter, 1 μM): 1.19
- fold induction at 10 µM (AR [3]; read-out: Fold induction of AR response reporter, 10 μM): 0.89
- Growth inhibitory effect on DU-145 cells (DU-145 cells): no growth inhibitory effect
- IC50 (AR [4]): 124 nM
- IC50 compared with bicalutamide (FIG. 15) (AR [4]; assay not specified): much lower than the IC50 for bicalutamide
- Growth effect on SkBr3 (SkBr3): no growth effect
- Growth of LNCaP-AR xenograft tumors (FIG. 7a) ([5]; 1 mg per kg orally once daily): strongly inhibited growth
- Dose dependence of tumor growth inhibition (FIG. 7b) ([5]; 0.1, 1 or 10 mg per kg): dose-dependent
- PSA expression in xenograft tumors (FIG. 8) ([5]; 0.1, 1 or 10 mg per kg, tumor lysate ELISA): inhibited PSA expression
- Potency relative to bicalutamide on hormone sensitive prostate cancer cells (LNCaP cells): 10 fold
- Effect on GR response reporter [6]: no effect on GR
- Growth effect on 3T3 (3T3): no growth effect
- Pharmacokinetic behavior, residence time in blood [7]: metabolize fast
- Growth of hormone refractory LAPC4 xenograft (FIG. 9a) [8]: strongly inhibited
- PSA expression in hormone refractory LAPC4 xenograft (FIG. 9b) [8]: strongly inhibited
